Activity calls are given as the source filed them. No cut-off for these calls is given here.
Legend:
HT-22 = assay: Neuroprotective activity against H2O2-induced oxidative stress in mouse HT-22 cells assessed as cell viability at 10 uM preincubated for 2 hrs followed by H2O2 addition measured after 24 hrs by MTT assay (reference value: 55 +/- 4.6 %); assay type: functional; conditions: for Activity: time 26.0 hrs; for viability at 10 µM: time 26 hrs, read-out: Activity
Plasma = assay: Anti-platelet aggregation in platelet-rich plasma of male Japanese white rabbit assessed as inhibition of ADP-induced platelet aggregation preincubated for 15 mins followed by ADP addition measured up to 10 mins by Born's turbidometric method; assay type: functional, cell-free; conditions: Oryctolagus cuniculus

SMILES | IC50 (Plasma) [µM] | Activity (HT-22) | viability at 10 µM (HT-22) [%]
N#Cc1ccc(COn2c(-c3cccc(C#N)c3)nc(-c3ccoc3)c2C(=O)O)cc1 | 7.61 | inactive | 
N#Cc1ccc(COn2c(-c3cccc(C#N)c3)nc(-c3cscn3)c2C(=O)O)cc1 | > 10 | inactive | 
N#Cc1ccc(-c2ncc(C(=O)O)c(Nc3ccccc3C#N)n2)cc1 | 9.74 |  | 97.8
CS(=O)(=O)Nc1cccc(Oc2nc(-c3cccc(C#N)c3)ncc2C(=O)O)c1 | 8.08 |  | 79.1
N#Cc1cccc(-c2ncc(C(=O)O)c(OCc3ccccc3C#N)n2)c1 | > 10 |  | 95.8
N#Cc1cccc(-c2nc(C(F)F)c(C(=O)O)n2OCc2ccncc2)c1 | 5.34 | inactive | 
N#Cc1ccc(COn2c(-c3cccc(C#N)c3)nc(-c3ccncc3)c2C(=O)O)cc1 | > 10 | inactive | 
N#Cc1cccc(-c2nc(C(F)F)c(C(=O)O)n2OCc2ccccn2)c1 | > 10 |  | 75.9
N#Cc1ccc(COn2c(-c3cccc(C#N)c3)nc(-c3cccnc3)c2C(=O)O)cc1 | > 10 | inactive | 
N#Cc1ccc(-c2ncc(C(=O)O)c(Oc3ccccc3C#N)n2)cc1 | 5.68 |  | 96.2
CC(=O)Nc1cccc(Oc2nc(-c3cccc(C#N)c3)ncc2C(=O)O)c1 | 7.99 |  | 88.2
N#Cc1ccc(-c2ncc(C(=O)O)c(OCc3ccccc3C#N)n2)cc1 | > 10 | inactive | 
N#Cc1cccc(Nc2nc(-c3cccc(C#N)c3)ncc2C(=O)O)c1 | 7.79 | inactive | 
N#Cc1ccc(COn2c(-c3cccc(C#N)c3)nc(-c3ccccn3)c2C(=O)O)cc1 | 9.2 | inactive | 
N#Cc1cccc(-c2ncc(C(=O)O)c(Oc3ccn[nH]3)n2)c1 | > 10 | inactive | 
N#Cc1ccc(Nc2nc(-c3ccc(C#N)cc3)ncc2C(=O)O)cc1 | 9.99 |  | 91.1
N#Cc1ccc(-c2ncc(C(=O)O)c(Nc3cccc(C#N)c3)n2)cc1 | > 10 |  | 97.2
N#Cc1ccc(COn2c(-c3cccc(C#N)c3)nc(-c3ccco3)c2C(=O)O)cc1 | > 10 |  | 77.1
N#Cc1ccc(COn2c(-c3cccc(C#N)c3)nc(-c3cccs3)c2C(=O)O)cc1 | > 10 | inactive | 
N#Cc1ccc(COc2nc(-c3ccc(C#N)cc3)ncc2C(=O)O)cc1 | > 10 |  | 88.2
N#Cc1cccc(-c2ncc(C(=O)O)c(Oc3cccnc3)n2)c1 | > 10 |  | 87.6
N#Cc1cccc(-c2ncc(C(=O)O)c(Nc3cccnc3)n2)c1 | > 10 | inactive | 
N#Cc1cccc(-c2ncc(C(=O)O)c(Nc3ccccc3C#N)n2)c1 | > 10 |  | 81
N#Cc1ccc(Nc2nc(-c3cccc(C#N)c3)ncc2C(=O)O)cc1 | > 10 |  | 84.9
N#Cc1cccc(-c2nc(C(F)F)c(C(=O)O)n2OCc2cccnc2)c1 | > 10 | inactive | 

Stronger by IC50 (Plasma), values ahead:

IC50 (Plasma) [µM] | SMILES | Activity (HT-22) | viability at 10 µM (HT-22) [%]
5.02 | Cc1nc(-c2cccc(C#N)c2)nc(OCc2ccc(C#N)cc2)c1C(=O)O | inactive | 
4.82 | N#Cc1ccc(Oc2nc(-c3cccc(C#N)c3)ncc2C(=O)O)cc1 | inactive | 
4.7 | N#Cc1cccc(-c2nc(C(F)F)c(C(=O)O)n2OCc2csc(N3CCOCC3)n2)c1 | inactive | 
4.62 | N#Cc1ccc(Oc2nc(-c3ccc(C#N)cc3)ncc2C(=O)O)cc1 |  | 91.3
4.52 | N#Cc1ccc(COn2c(-c3cccc(C#N)c3)nc(-c3nccs3)c2C(=O)O)cc1 | inactive | 
4.36 | N#Cc1ccc(-c2ncc(C(=O)O)c(Oc3cccc(C#N)c3)n2)cc1 |  | 98.9
4.11 | N#Cc1ccc(COn2c(-c3cccc(C#N)c3)nc(-c3cnccn3)c2C(=O)O)cc1 | inactive | 
4.09 | CCc1nc(-c2cccc(C#N)c2)n(OCc2ccc(C#N)cc2)c1C(=O)O |  | 70.6
3.77 | N#Cc1cccc(-c2nc(C(F)F)c(C(=O)O)n2OCc2cncs2)c1 |  | 64.9
3.71 | CN(C)c1nc(COn2c(-c3cccc(C#N)c3)nc(C(F)F)c2C(=O)O)cs1 |  | 62.4
3.43 | [2H]C([2H])([2H])c1nc(-c2cccc(C#N)c2)n(OCc2ccc(C#N)cc2)c1C(=O)O |  | 73.1
3.37 | N#Cc1cccc(-c2ncc(C(=O)O)c(Oc3ccccc3C#N)n2)c1 | inactive | 
3.33 | N#Cc1ccc(COn2c(-c3cccc(C#N)c3)nc(-c3ccccc3)c2C(=O)O)cc1 | inactive | 
3.11 | N#Cc1ccc(COn2c(-c3cccc(C#N)c3)nc(C3CC(F)(F)C3)c2C(=O)O)cc1 | inactive | 
3.08 | N#Cc1ccc(COc2nc(-c3cccc(C#N)c3)ncc2C(=O)O)cc1 | inactive | 
3.01 | N#Cc1ccc(-c2ncc(C(=O)O)c(OCc3cccc(C#N)c3)n2)cc1 |  | 81.1
2.99 | CC1(c2nc(-c3cccc(C#N)c3)n(OCc3ccc(C#N)cc3)c2C(=O)O)CCC1 |  | 72.4
2.88 | N#Cc1ccc(COn2c(-c3cccc(C#N)c3)nc(C3CC3(F)F)c2C(=O)O)cc1 (centres undefined) |  | 60.1
2.79 | N#Cc1cccc(-c2nc(C(F)F)c(C(=O)O)n2OCc2nccs2)c1 | inactive | 

IC50 (Plasma) [µM] | SMILES | Activity (HT-22) | viability at 10 µM (HT-22) [%]
2.71 | CCN(CC)c1nc(COn2c(-c3cccc(C#N)c3)nc(C(F)F)c2C(=O)O)cs1 | inactive | 
2.67 | N#Cc1cccc(COc2nc(-c3cccc(C#N)c3)ncc2C(=O)O)c1 |  | 80.7
2.63 | N#Cc1ccc(COn2c(-c3cccc(C#N)c3)nc(-c3cncs3)c2C(=O)O)cc1 | inactive | 
2.61 | N#Cc1ccc(COn2c(-c3cccc(C#N)c3)nc(C3CCCCC3)c2C(=O)O)cc1 | inactive | 
2.53 | N#Cc1ccc(COn2c(-c3cccc(C#N)c3)nc(C3CCCC3)c2C(=O)O)cc1 | inactive | 
2.51 | N#Cc1ccc(COn2c(-c3cccc(C#N)c3)nc(C3CC3)c2C(=O)O)cc1 | inactive | 
2.41 | CC1(c2nc(-c3cccc(C#N)c3)n(OCc3ccc(C#N)cc3)c2C(=O)O)CC1 |  | 88.1
2.18 | N#Cc1cccc(-c2nc(C(F)F)c(C(=O)O)n2OCc2cnco2)c1 | inactive | 
2.08 | CC(C)Cc1nc(-c2cccc(C#N)c2)n(OCc2ccc(C#N)cc2)c1C(=O)O |  | 76.1
1.98 | N#Cc1cccc(-c2nc(C(F)F)c(C(=O)O)n2OCc2cscn2)c1 |  | 86.8
1.8 | N#Cc1ccc(COn2c(-c3cccc(C#N)c3)nc(C(F)(F)F)c2C(=O)O)cc1 |  | 75.6
1.69 | N#Cc1cccc(-c2nc(C(F)F)c(C(=O)O)n2OCc2cocn2)c1 | inactive | 
1.62 | COCc1nc(-c2cccc(C#N)c2)n(OCc2ccc(C#N)cc2)c1C(=O)O | inactive | 
1.62 | CC(C)c1nc(-c2cccc(C#N)c2)n(OCc2ccc(C#N)cc2)c1C(=O)O | inactive | 
1.43 | N#Cc1ccc(COn2c(-c3cccc(C#N)c3)nc(C3CCC3)c2C(=O)O)cc1 | inactive | 
1.39 | N#Cc1ccc(COn2c(-c3cccc(C#N)c3)nc(-c3ccsc3)c2C(=O)O)cc1 | inactive | 
1.36 | Cc1sc(N2CCOCC2)nc1COn1c(-c2cccc(C#N)c2)nc(C(F)F)c1C(=O)O |  | 64.6
0.98 | N#Cc1ccc(COn2c(-c3cccc(C#N)c3)nc(C(F)F)c2C(=O)O)cc1 |  | 77.4
